# Data published in article PMC7693676, “Suberitamides A–C, Aryl Alkaloids from a Pseudosuberites sp. Marine Sponge that Inhibit Cbl-b Ubiquitin Ligase Activity” (Marine Drugs, 2020).
# Biological target: T1, Cbl-b (Homo sapiens, UniProt Q13191)
# T1 construct: gene CBLB; N1/2 Construct; with E1 (UBE1) and E2 (UBC-H5) with ubiquitin in the assay
# Experiment: in vitro Cbl-b autoubiquitination assay (UBA-coated plate, biotin-ubiquitin/avidin-HRP fluorescence), dose response
# Format: biochemical
# T1 sequence (Q13191 whole entry): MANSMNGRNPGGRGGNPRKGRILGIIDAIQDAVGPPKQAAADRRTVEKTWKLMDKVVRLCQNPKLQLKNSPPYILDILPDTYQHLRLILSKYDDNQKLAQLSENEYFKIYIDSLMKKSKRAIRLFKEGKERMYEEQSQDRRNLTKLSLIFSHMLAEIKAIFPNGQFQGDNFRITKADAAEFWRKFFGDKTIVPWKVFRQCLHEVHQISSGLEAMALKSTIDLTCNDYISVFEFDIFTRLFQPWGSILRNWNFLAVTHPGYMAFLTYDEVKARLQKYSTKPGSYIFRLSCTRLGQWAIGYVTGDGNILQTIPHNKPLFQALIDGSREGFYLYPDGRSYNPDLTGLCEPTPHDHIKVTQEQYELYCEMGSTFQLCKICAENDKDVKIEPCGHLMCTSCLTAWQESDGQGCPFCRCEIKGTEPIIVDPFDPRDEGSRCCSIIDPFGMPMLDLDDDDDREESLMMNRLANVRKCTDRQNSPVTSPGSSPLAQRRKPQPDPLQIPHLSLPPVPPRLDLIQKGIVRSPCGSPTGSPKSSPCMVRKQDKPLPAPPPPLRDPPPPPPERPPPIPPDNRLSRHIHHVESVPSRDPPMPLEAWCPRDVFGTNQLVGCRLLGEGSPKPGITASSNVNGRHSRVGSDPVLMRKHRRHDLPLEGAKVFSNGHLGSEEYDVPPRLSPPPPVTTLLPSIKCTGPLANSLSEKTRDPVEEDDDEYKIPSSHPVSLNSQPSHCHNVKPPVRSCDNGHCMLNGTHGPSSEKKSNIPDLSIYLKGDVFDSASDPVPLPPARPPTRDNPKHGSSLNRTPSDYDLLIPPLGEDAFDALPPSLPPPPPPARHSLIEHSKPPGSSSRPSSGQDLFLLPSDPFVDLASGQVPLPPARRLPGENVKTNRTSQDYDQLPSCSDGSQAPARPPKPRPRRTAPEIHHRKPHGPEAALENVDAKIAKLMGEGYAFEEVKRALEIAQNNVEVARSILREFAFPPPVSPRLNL
# T1 sequence (P22314 2-1058 partner): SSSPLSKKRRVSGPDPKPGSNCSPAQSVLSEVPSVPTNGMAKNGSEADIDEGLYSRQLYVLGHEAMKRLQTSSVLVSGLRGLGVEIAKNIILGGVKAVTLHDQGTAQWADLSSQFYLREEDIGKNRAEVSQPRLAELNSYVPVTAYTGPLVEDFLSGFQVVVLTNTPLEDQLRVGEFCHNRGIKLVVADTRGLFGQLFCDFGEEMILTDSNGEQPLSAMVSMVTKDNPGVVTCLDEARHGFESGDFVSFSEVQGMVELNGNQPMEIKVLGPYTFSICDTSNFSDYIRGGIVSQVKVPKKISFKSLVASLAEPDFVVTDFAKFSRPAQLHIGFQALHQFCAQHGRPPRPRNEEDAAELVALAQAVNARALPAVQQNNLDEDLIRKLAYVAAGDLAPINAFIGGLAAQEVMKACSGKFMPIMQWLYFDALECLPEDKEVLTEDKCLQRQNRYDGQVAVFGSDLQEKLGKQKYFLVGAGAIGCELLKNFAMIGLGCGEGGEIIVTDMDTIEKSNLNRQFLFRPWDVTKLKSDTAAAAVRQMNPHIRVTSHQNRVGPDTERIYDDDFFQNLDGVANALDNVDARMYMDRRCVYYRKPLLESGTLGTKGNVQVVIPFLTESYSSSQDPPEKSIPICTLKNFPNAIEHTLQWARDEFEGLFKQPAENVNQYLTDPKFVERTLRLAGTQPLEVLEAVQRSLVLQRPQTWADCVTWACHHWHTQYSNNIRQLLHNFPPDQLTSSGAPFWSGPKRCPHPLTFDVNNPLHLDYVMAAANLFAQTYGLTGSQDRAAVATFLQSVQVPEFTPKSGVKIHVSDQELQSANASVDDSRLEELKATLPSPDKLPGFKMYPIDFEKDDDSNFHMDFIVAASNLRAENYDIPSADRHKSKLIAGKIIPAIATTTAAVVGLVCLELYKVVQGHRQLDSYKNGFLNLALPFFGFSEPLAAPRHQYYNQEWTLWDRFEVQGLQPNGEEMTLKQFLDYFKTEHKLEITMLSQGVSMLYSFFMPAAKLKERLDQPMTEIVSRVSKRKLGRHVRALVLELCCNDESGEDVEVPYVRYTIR
row,IC50 [µM],Structure (SMILES)
1,~11,"CO[C@@]1(C(=O)N/C=C/c2ccc(O)cc2)O[C@](O)(C(=O)N/C=C/c2ccc(O)cc2)[C@@H](c2ccc(O)c(O)c2)[C@@H]1c1ccc(O)c(O)c1 [compound 1, suberitamide A]"
2,~11,"O=C(N/C=C/c1ccc(O)cc1)c1c(-c2ccc(O)c(O)c2)c(-c2ccc(O)c(O)c2)c(C(=O)N/C=C/c2ccc(O)cc2)n1CCc1ccc(O)cc1 [compound 2, suberitamide B]"
